Data: patent US9783510B2, “Small molecule mediated transcriptional induction of E-cadherin” (Vanderbilt University, priority 2014, dated 2017)
pEC50: −log10 of the molar value.

How the values were obtained:
[1] = Clearance in human microsomes; type: in vitro ADME
Method: (§1) The potency and efficacy of Compound 13 was evaluated in vivo. For these studies, the pharmacokinetics of Compound 13 were first evaluated in vitro and in vivo (FIG. 14).

[2] = Intrinsic clearance in vitro, mouse; type: in vitro ADME
Method: as §1

[3] = system: E-cadherin expression in SW620 cells; assay: E-cadherin expression, in-cell Western (ICW), SW620 cells; type: cell-based; conditions: Homo sapiens
Method in brief: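 SW620 cells were treated with compound for 24 h in RPMI 1640 (single-point at 10 μM; EC50 also determined), in quadruplicate. After methanol fixation, in-cell Western with anti-E-cadherin and anti-α-tubulin primaries and IRDye 800/700 secondaries. Read on an Odyssey IR imager.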

[4] = Protein binding in vitro, human samples; type: in vitro ADME
Method: as §1

[5] = system: E-cadherin protein in SW620inv cells; assay: Quantitative Western blot of E-cadherin protein, SW620inv time course; type: cell-based; conditions: maintained level, 12, 18 and 24 hour time-points
[6] = system: human E-cadherin promoter; assay: E-cadherin promoter luciferase reporter assay in SW620inv cells; type: cell-based; conditions: 10 μM, 24 hours
Method: The 1.4 kbp E-cadherin promoter plasmid (E1) and deletion plasmids E2-E8 were a gift from Dr. Eric Fearon at The University of Michigan (Liu, Y. N., et al. (2005) Onocogene 24, 8277-8290). All plasmid constructs were sequenced at the Vanderbilt University Sequencing Core to confirm the E-cadherin promoter fragments using the PCR primers listed in Table I and herein below. Luciferase assays were performed as previously described (Freeman, T. J., et al. (2012) Gastroenterology 142, 562-572).
Compound 13 (259Y) induces>20-fold increases in reporter activation driven by the 1130 bp promoter region in an assay in which an exogenous firefly luciferase gene is driven by defined regions of the human E-cadherin promoter. This region includes consensus binding sequences for several known transcription factors, including AML1, P300, Snail and SP1 (Liu, Y. N., et al. (2005) Oncogene 24, 8277-8290). […]
Referring to FIG. 5, a diagram of the 8 E-cadherin promoter reporter plasmids (full length and truncations) utilized to determine promoter elements critical for promoter activity is shown. […] Fold change is Log2^−ΔΔCp of the normalized fluorescence signal relative to the mean of the DMSO treated group. Statistical significance was calculated using a two-way ANOVA (Holm-Sidak method): ****=p<0.00005, ***=p<0.0005, **=p<0.005, *=p<0.05. […]

[7] = system: proximal region of the E-cadherin promoter (Cdh1) in SW620inv cells; assay: ChIP assay at proximal E-cadherin promoter, SW620inv cells; type: cell-based
[8] = IV pharmacokinetics in Sprague-Dawley rats; type: in vivo; conditions: IV dosing
Method: as §1

[9] = Clearance in vitro, rat; type: in vitro ADME
Method: as §1

[10] = SW620inv, ChIP, 10 μM vs DMSO (FIG. 7C)

Question: Which clearance [1] does the source give for O=C(NCCCNC(=O)c1cccnc1O)c1cc(-c2ccccc2)on1 [Compound 13, N-(3-(2-hydroxynicotinamido)propyl)-5-phenylisoxazole-3-carboxamide] here?
Answer: minimal

Question: What about the intrinsic clearance [2] of the same compound?
Answer: high

Question: What about the fold induction at 10 µM ([3]; SW-620, 24 h, change in expression level of E-cadherin in response to 10 μM compound, 24 hours, SW620 cells) of the same compound?
Answer: 5.23

Question: And the pEC50 ([3]; SW-620, inducement of E-cadherin expression in SW620 cells)?
Answer: 5.39

Question: And the protein binding [4]?
Answer: relatively high

Question: What about the “E-cadherin protein levels relative to control vehicle treated cells” value [5] of the same compound?
Answer: > 10 ×

Question: What about the reporter activation ([6]; 1130 bp promoter region) of the same compound?
Answer: > 20 fold

Question: What about the “reporter activation above control after serial deletion of distal promoter regions” value ([6]; deletion incl. −492 bp to −330 bp) of the same compound?
Answer: > 10 ×

Question: What about the “Pol II association with the E-cadherin proximal promoter” value ([7]; ChIP (FIG. 8)) of the same compound?
Answer: 3.7 fold

Question: What about the “enriched binding of H3K4me3 at the E-cadherin promoter” value [7, 10] of the same compound?
Answer: 2.1 fold

Question: And the “enriched binding of H3K9Ac at the E-cadherin promoter” value [7, 10]?
Answer: 3.4 fold

Question: What about the “enriched binding of Pol II at the E-cadherin promoter” value [7, 10] of the same compound?
Answer: 4.6 fold

Question: What about the clearance [8] of the same compound?
Answer: moderate

Question: What about the elimination half-life [8] of the same compound?
Answer: long

Question: What about the volume of distribution [8] of the same compound?
Answer: moderate

Question: What about the clearance [9] of the same compound?
Answer: very moderate
